In patent US20250052985A1, “SYSTEM AND METHOD FOR QUANTITATIVE PHASE IMAGING FOR MULTI-PARAMETRIC SCREENING OF TUMOR THERAPY RESPONSE” (UNIVERSITY OF UTAH RESEARCH FOUNDATION, priority 2023, published 2025):
“And” between values parts separate entries of the source, which are not always exact repeats. Equal values may be shown once. Read-outs that look alike come from different tables or passages of the source.

Columns and labels:
[1] = system: BT-474 cells; assay: cells; conditions: for Max Asymptote / Min Asymptote: BT-474, 4-parameter Hill fit of mean SGR vs concentration, one line per replicate; for Hill Slope / log10(EC50): BT-474, Hill fit; for DoR QPI: depth of response; for ToR 20 μM: time of response at 20 μM
Outline: (§1)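 EC50 comes from 4-parameter Hill fits of average specific growth rate (mass accumulation) versus dose; a response is called only when the fit beats a flat line by F-test at p<0.01. Growth was tracked by differential phase contrast QPI for 24 or 72 h post-equilibration, followed by CTG ATP readout.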

[2] = system: MCF-7 cells; assay: cells; conditions: for Max Asymptote / Min Asymptote: MCF-7, 4-parameter Hill fit of mean SGR vs concentration, one line per replicate; for Hill Slope / log10(EC50): MCF-7, Hill fit; for DoR QPI: depth of response; for ToR 20 μM: time of response at 20 μM
Outline: as §1

[3] = system: BT-474 cells; assay: CellTiter-Glo (CTG) ATP viability assay, BT-474; assay type: cell-based; conditions: for Min Asymptote: BT-474, Hill fit of luminescence normalized to solvent control, one line per replicate; for DoR CTG: depth of response
Outline: (§2)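 Cell viability was read as ATP content by CellTiter-Glo luminescence after replacing media with reagent, shaking 20 min and resting 10 min. Signal was normalized to solvent control, and a 4-parameter Hill fit to the dose response gave EC50 and depth of response.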

[4] = system: MCF-7 cells; assay: CellTiter-Glo (CTG) ATP viability assay, MCF-7; assay type: cell-based; conditions: for Min Asymptote: MCF-7, Hill fit of luminescence normalized to solvent control, one line per replicate; for DoR CTG: depth of response
Outline: as §2

[5] = system: MDA-MB-231 cells; assay: CellTiter-Glo (CTG) ATP viability assay, MDA-MB-231; assay type: cell-based; conditions: for Min Asymptote: MDA-MB-231, Hill fit of luminescence normalized to solvent control, one line per replicate; for DoR CTG: depth of response
Outline: as §2

[6] = Homo sapiens, BT-474, 24 h, read-out: log10(EC50), 24 h QPI, BT-474, Hill fit (converted), EC50 in μM per Table 1
[7] = Homo sapiens, BT-474, read-out: EC50, QPI, BT-474 cell line, QPI growth rate
[8] = Homo sapiens, MCF7, 24 h, read-out: log10(EC50), 24 h QPI, MCF-7, Hill fit (converted), EC50 in μM per Table 1
[9] = Homo sapiens, MCF7, read-out: EC50, QPI, MCF-7 cell line, QPI growth rate
[10] = BT-474 cell line, CellTiter-Glo
[11] = Homo sapiens, BT-474, BT-474 cell line, CellTiter-Glo, read-out: EC50, CTG
[12] = Homo sapiens, MCF7, MCF-7 cell line, CellTiter-Glo, read-out: EC50, CTG (converted)
[13] = Homo sapiens, MDA-MB-231, 72 h, 72 h CTG, MDA-MB-231, Hill fit, read-out: log10(EC50) (converted)
[14] = Homo sapiens, MDA-MB-231, MDA-MB-231 cell line, CellTiter-Glo, read-out: EC50, CTG
[15] = MDA-MB-231 cell line, CellTiter-Glo
[16] = 24 h QPI, EC50 in μM per Table 1

## C[C@]12CC[C@@H]3c4ccc(O)cc4C[C@@H](CCCCCCCCC[S+]([O-])CCCC(F)(F)C(F)(F)F)[C@H]3[C@@H]1CC[C@@H]2O (some centres unmarked) [Fulvestrant]
[1]; 24 h QPI
  Max Asymptote: 0.01059
  Min Asymptote: 0.007383
  Hill Slope: 0.5448
[1]; 72 h QPI
  Max Asymptote: 0.006153 and 0.002199 and 0.003561
  Min Asymptote: 0.009854 and 0.008492 and 0.009456
[1]; BT-474 cell line
  DoR QPI: 0.6
  ToR 20 μM: 28.9
[1]; [6]
  EC50: 13.7 µM
[1]; [7]
  EC50: 11.6 µM
[1]; Homo sapiens, BT-474, read-out: EC50, SD, BT-474 cell line, EC50 of the standard deviation
  EC50: 8.17 µM
[2]; 24 h QPI
  Max Asymptote: 0.04169
  Min Asymptote: 0.02021
  Hill Slope: 0.4537
[2]; 72 h QPI
  Max Asymptote: 0.01656 and 0.01573
  Min Asymptote: 0.02377 and 0.02811
  Hill Slope: 0.5562 and 0.7449
[2]; [8]
  EC50: 0.000875 µM
[2]; [9]
  EC50: 0.2 µM
[2]; MCF-7 cell line
  DoR QPI: 0.4
  ToR 20 μM: 23.2
[2]; small cluster of MCF-7 cells, 20 μM, 10 h to 72 h
  cluster mass over time: grow slowly at the beginning and end the experiment with a lower mass than they started with
[3]; 72 h CTG
  Min Asymptote: 0.1608 (2×) and 0.8009
[3]; [10]
  DoR CTG: 0.6
[3]; [11]
  EC50: 1340 µM
[4]; 24 h CTG
  Min Asymptote: 0.5189 and 0.9446
[4]; 72 h CTG
  Min Asymptote: 0.76 and 0.7073 and 0.6956
[4]; [12]
  EC50: 0.5 µM
[4]; MCF-7 cell line, CellTiter-Glo
  DoR CTG: 0.3
[5]; 72 h CTG, MDA-MB-231, Hill fit
  Hill Slope: 0.7641
[5]; 72 h CTG
  Min Asymptote: 0.01999
[5]; [13]
  EC50: 31.4 µM
[5]; [14]
  EC50: 31.4 µM
[5]; [15]
  DoR CTG: 1.0

## O=c1[nH]cc(F)c(=O)[nH]1 [5FU, 5-Fluorouracil]
[1]; 24 h QPI
  Max Asymptote: 0.01107
  Min Asymptote: 0.009021
  Hill Slope: 0.9134
[1]; 72 h QPI
  Max Asymptote: 0.007708 and 0.007733
  Min Asymptote: 0.008643 and 0.009665
  Hill Slope: 1.5745 and 1.1389
[1]; BT-474 cell line
  DoR QPI: 0.2
[1]; [6]
  EC50: 0.0682 µM
[1]; [7]
  EC50: 0.1 µM
[2]; 24 h QPI
  Max Asymptote: 0.02676 and 0.02665 (2×)
  Min Asymptote: 0.01382 and 0.007436 (2×)
[2]; [16]
  log10(EC50): −1.151
[2]; 72 h QPI
  Min Asymptote: 0.0232 and 0.02426 and 0.02866
[2]; [8]
  EC50: 8.57 µM
[2]; [9]
  EC50: 25.7 µM
[2]; MCF-7 cell line
  DoR QPI: 1.0
  ToR 20 μM: 9.4
[3]; 24 h CTG, BT-474, Hill fit
  Hill Slope: 0.5388
[3]; 24 h CTG
  Min Asymptote: 0.925
[3]; 72 h CTG, BT-474, Hill fit
  Hill Slope: 1.185 and 1.042
  log10(EC50): 0.7667
[3]; 72 h CTG
  Min Asymptote: 0.938 (2×) and 0.9222
[3]; [10]
  DoR CTG: 0.1
[3]; Homo sapiens, BT-474, 24 h, 24 h CTG, BT-474, Hill fit, read-out: log10(EC50) (converted)
  EC50: 10.9 µM
[3]; [11]
  EC50: 0.1 µM
[4]; 24 h CTG, MCF-7, Hill fit
  Hill Slope: 7.081
[4]; 24 h CTG
  Min Asymptote: 0.9238
[4]; 72 h CTG, MCF-7, Hill fit
  Hill Slope: 1.254 and 1.059 and 1.202
[4]; 72 h CTG
  Min Asymptote: 0.1952 and 0.003653 and 0.01678
[4]; Homo sapiens, MCF7, 24 h, 24 h CTG, MCF-7, Hill fit, read-out: log10(EC50) (converted)
  EC50: 1.89 µM
[4]; [12]
  EC50: 10.8 µM
[4]; MCF-7 cell line, CellTiter-Glo
  DoR CTG: 0.9
[5]; 72 h CTG, MDA-MB-231, Hill fit
  Hill Slope: 1.997
[5]; 72 h CTG
  Min Asymptote: 0.4937
[5]; [13]
  EC50: 6 µM
[5]; [14]
  EC50: 6 µM
[5]; [15]
  DoR CTG: 0.5

## CCC(=C(c1ccc(O)cc1)c1ccc(OCCN(C)C)cc1)c1ccccc1 [4HT, 4-hydroxy-Tamoxifen]
[1]; 24 h QPI
  Max Asymptote: 0.01232 and 0.00969 and 0.009107
  Min Asymptote: −0.01613 and −0.02375 and −0.02493
  Hill Slope: 2.303 and 3.2307 and 3.3723
[1]; [16]
  log10(EC50): −1.1593 and −1.2498 and −1.2667
[1]; 72 h QPI
  Max Asymptote: −0.01224 and −0.01212 and −0.01166
  Min Asymptote: 0.009052 and 0.007511 and 0.008099
  Hill Slope: 3.3746 and 3.7567 and 4.6177
[1]; 72 h QPI, EC50 in μM per Table 1
  log10(EC50): −1.2566 and −1.2595 and −1.2511
[1]; BT-474, FIG. 5E, 22, 23
  response of growth rate and heterogeneity to treatment: both reduced growth rate and slightly increased heterogeneity
[1]; BT-474, FIG. 22
  growth rate and heterogeneity as concentration increases: decrease in growth rate at approximately constant standard deviation
[1]; BT-474, FIG. 23 Graph F
  growth rate and heterogeneity over time: first experiencing reduced growth rate, and then a large spike in heterogeneity
[1]; BT-474 cell line
  DoR QPI: 2.5
  ToR 20 μM: −0.9815
[1]; read-out: EC50, QPI, BT-474 cell line, QPI growth rate
  EC50: 18 µM
[2]; 24 h QPI
  Max Asymptote: 0.02753 and 0.02505 (2×)
[2]; [16]
  log10(EC50): −1.3545
[2]; 72 h QPI
  Min Asymptote: 0.02137 and 0.02094 and 0.02499
[2]; MCF-7 cell line
  DoR QPI: 2.1
  ToR 20 μM: −1.3078
[2]; read-out: EC50, QPI, MCF-7 cell line, QPI growth rate
  EC50: 75.2 µM
[3]; 24 h CTG, BT-474, Hill fit
  Hill Slope: 4.596
  log10(EC50): −0.736
[3]; 24 h CTG
  Min Asymptote: 0.07942
[3]; 72 h CTG, BT-474, Hill fit
  Hill Slope: 3.312 and 3.655
  log10(EC50): −0.6116 and −0.6471
[3]; 72 h CTG
  Min Asymptote: 1.76E−08 (2×) and 8.28E−08
[3]; BT-474 cell line, CellTiter-Glo, read-out: EC50, CTG
  EC50: 4.2 µM
[3]; [10]
  DoR CTG: 1.0
[4]; 24 h CTG
  Min Asymptote: 7.96E−12 and 5.22E−09
[4]; 72 h CTG, MCF-7, Hill fit
  log10(EC50): −0.5373 and −0.5549 and −0.6776
[4]; 72 h CTG
  Min Asymptote: 2.23E−14 and 2.22E−14 and 3.01E−12
[4]; MCF-7 cell line, CellTiter-Glo, read-out: EC50, CTG (converted)
  EC50: 3.9 µM
[4]; MCF-7 cell line, CellTiter-Glo
  DoR CTG: 1.0
[5]; 24 h CTG, MDA-MB-231, Hill fit
  Hill Slope: 5.351
  log10(EC50): −0.5158
[5]; 24 h CTG
  Min Asymptote: 0.393
[5]; 72 h CTG, MDA-MB-231, Hill fit
  log10(EC50): −0.9458
[5]; 72 h CTG
  Min Asymptote: 0.003315 and 0.01516 (2×)
[5]; MDA-MB-231 cell line, CellTiter-Glo, read-out: EC50, CTG
  EC50: 6.9 µM
[5]; [15]
  DoR CTG: 1.0
